# Assay results published in PubChem BioAssay AID1918956 (Molecular Pharmacology Branch, DTP, NCI, 2023).
# System: OVCAR-5 complex spheroids, viability
# Assay: Anticancer human tumor OVCAR-5 cell line growth inhibition;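 further: spheroids exposed to agents for seven days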;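 on viability, T/C: 100% = DMSO vehicle control wells viability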
# Details: for IC50: curve of first compound; for viability, T/C: stronger effect = lower value
# Outline: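 Multicellular complex spheroids of tumor cells with human endothelial cells (HUVEC) and mesenchymal stem cells; the LSD1 inhibitor iadademstat was combined with standard-of-care or investigational agents. Top concentration at or near clinical Cmax, half-log dilutions; final DMSO ≤0.25%.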
# [1] = second compound 0.1 µM, first compound 0.00949 µM
# [2] = second compound 0.1 µM, first compound 0.03 µM
# [3] = second compound 0.1 µM, first compound 0.0949 µM
# [4] = second compound 0.1 µM, first compound 0.3 µM
# [5] = second compound 0.316 µM, first compound 0.00949 µM
# [6] = second compound 0.316 µM, first compound 0.03 µM
# [7] = second compound 0.316 µM, first compound 0.0949 µM
# [8] = second compound 0.316 µM, first compound 0.3 µM
# [9] = second compound 1 µM, first compound 0.00949 µM
# [10] = second compound 1 µM, first compound 0.03 µM
# [11] = second compound 1 µM, first compound 0.0949 µM
# [12] = second compound 1 µM, first compound 0.3 µM
# [13] = second compound 3.16 µM, first compound 0.00949 µM
# [14] = second compound 3.16 µM, first compound 0.03 µM
# [15] = second compound 3.16 µM, first compound 0.0949 µM
# [16] = second compound 3.16 µM, first compound 0.3 µM
# [17] = second compound 10 µM, first compound 0.00949 µM
# [18] = second compound 10 µM, first compound 0.03 µM
# [19] = second compound 10 µM, first compound 0.0949 µM
# [20] = second compound 10 µM, first compound 0.3 µM
smiles,measurement,setting,value
CCN(c1cc(-c2ccc(CN3CCOCC3)cc2)cc(C(=O)NCc2c(C)cc(C)[nH]c2=O)c1C)C1CCOCC1 + NC1CCC(NC2CC2c2ccccc2)CC1,IC50,second compound 0.1 µM,> 3000 nM
same,IC50,second compound 0.316 µM,> 3000 nM
same,IC50,second compound 1 µM,> 3000 nM
same,IC50,second compound 3.16 µM,> 3000 nM
same,IC50,second compound 10 µM,> 3000 nM
same,"viability, T/C",[1],116%
same,"viability, T/C",[2],110%
same,"viability, T/C",[3],96.1%
same,"viability, T/C",[4],100%
same,"viability, T/C","second compound 0.1 µM, first compound 0.949 µM",106%
same,"viability, T/C","second compound 0.1 µM, first compound 3 µM",101%
same,"viability, T/C",[5],109%
same,"viability, T/C",[6],114%
same,"viability, T/C",[7],101%
same,"viability, T/C",[8],108%
same,"viability, T/C","second compound 0.316 µM, first compound 0.949 µM",103%
same,"viability, T/C","second compound 0.316 µM, first compound 3 µM",101%
same,"viability, T/C",[9],92.4%
same,"viability, T/C",[10],105%
same,"viability, T/C",[11],90.6%
same,"viability, T/C",[12],97%
same,"viability, T/C","second compound 1 µM, first compound 0.949 µM",96.5%
same,"viability, T/C","second compound 1 µM, first compound 3 µM",87.6%
same,"viability, T/C",[13],96%
same,"viability, T/C",[14],94.5%
same,"viability, T/C",[15],94%
same,"viability, T/C",[16],81.4%
same,"viability, T/C","second compound 3.16 µM, first compound 0.949 µM",89.9%
same,"viability, T/C","second compound 3.16 µM, first compound 3 µM",94.4%
same,"viability, T/C",[17],88.2%
same,"viability, T/C",[18],82.1%
same,"viability, T/C",[19],93.7%
same,"viability, T/C",[20],79.9%
same,"viability, T/C","second compound 10 µM, first compound 0.949 µM",72.5%
same,"viability, T/C","second compound 10 µM, first compound 3 µM",76.4%
Nc1ncn(C2CC(O)C(CO)S2)c(=O)n1 (stereo not given) + NC1CCC(NC2CC2c2ccccc2)CC1,IC50,second compound 0.1 µM,> 300 nM
same,IC50,second compound 0.316 µM,> 300 nM
same,IC50,second compound 1 µM,> 300 nM
same,IC50,second compound 3.16 µM,> 300 nM
same,IC50,second compound 10 µM,> 300 nM
same,"viability, T/C","second compound 0.1 µM, first compound 0.000949 µM",119%
same,"viability, T/C","second compound 0.1 µM, first compound 0.003 µM",104%
same,"viability, T/C",[1],111%
same,"viability, T/C",[2],99.6%
same,"viability, T/C",[3],92.2%
same,"viability, T/C",[4],77%
same,"viability, T/C","second compound 0.316 µM, first compound 0.000949 µM",112%
same,"viability, T/C","second compound 0.316 µM, first compound 0.003 µM",102%
same,"viability, T/C",[5],105%
same,"viability, T/C",[6],94.6%
same,"viability, T/C",[7],93.4%
same,"viability, T/C",[8],80.2%
same,"viability, T/C","second compound 1 µM, first compound 0.000949 µM",102%
same,"viability, T/C","second compound 1 µM, first compound 0.003 µM",99.5%
same,"viability, T/C",[9],101%
same,"viability, T/C",[10],89.8%
same,"viability, T/C",[11],93.9%
same,"viability, T/C",[12],80.5%
same,"viability, T/C","second compound 3.16 µM, first compound 0.000949 µM",92%
same,"viability, T/C","second compound 3.16 µM, first compound 0.003 µM",101%
same,"viability, T/C",[13],94.1%
same,"viability, T/C",[14],96.9%
same,"viability, T/C",[15],89%
same,"viability, T/C",[16],75.8%
same,"viability, T/C","second compound 10 µM, first compound 0.000949 µM",91%
same,"viability, T/C","second compound 10 µM, first compound 0.003 µM",81.9%
same,"viability, T/C",[17],85.9%
same,"viability, T/C",[18],83.7%
same,"viability, T/C",[19],82.7%
same,"viability, T/C",[20],71%
O=C(C=Cn1cnc(-c2cc(C(F)(F)F)cc(C(F)(F)F)c2)n1)NNc1cnccn1 + NC1CCC(NC2CC2c2ccccc2)CC1,IC50,second compound 0.1 µM,235 nM
same,IC50,second compound 0.316 µM,215 nM
same,IC50,second compound 1 µM,> 1000 nM
same,IC50,second compound 3.16 µM,705 nM
same,IC50,second compound 10 µM,312 nM
same,"viability, T/C","second compound 0.1 µM, first compound 0.00316 µM",97.6%
same,"viability, T/C","second compound 0.1 µM, first compound 0.01 µM",88.2%
same,"viability, T/C","second compound 0.1 µM, first compound 0.0316 µM",67.2%
same,"viability, T/C","second compound 0.1 µM, first compound 0.1 µM",55%
same,"viability, T/C","second compound 0.1 µM, first compound 0.316 µM",50.3%
same,"viability, T/C","second compound 0.1 µM, first compound 1 µM",44.9%
same,"viability, T/C","second compound 0.316 µM, first compound 0.00316 µM",104%
same,"viability, T/C","second compound 0.316 µM, first compound 0.01 µM",85.8%
same,"viability, T/C","second compound 0.316 µM, first compound 0.0316 µM",69.6%
same,"viability, T/C","second compound 0.316 µM, first compound 0.1 µM",51%
same,"viability, T/C","second compound 0.316 µM, first compound 0.316 µM",49.6%
same,"viability, T/C","second compound 0.316 µM, first compound 1 µM",45.7%
same,"viability, T/C","second compound 1 µM, first compound 0.00316 µM",88.4%
same,"viability, T/C","second compound 1 µM, first compound 0.01 µM",84.1%
same,"viability, T/C","second compound 1 µM, first compound 0.0316 µM",68.8%
same,"viability, T/C","second compound 1 µM, first compound 0.1 µM",59.4%
same,"viability, T/C","second compound 1 µM, first compound 0.316 µM",54.5%
same,"viability, T/C","second compound 1 µM, first compound 1 µM",50.3%
same,"viability, T/C","second compound 3.16 µM, first compound 0.00316 µM",97.9%
same,"viability, T/C","second compound 3.16 µM, first compound 0.01 µM",88.1%
same,"viability, T/C","second compound 3.16 µM, first compound 0.0316 µM",74.4%
same,"viability, T/C","second compound 3.16 µM, first compound 0.1 µM",60%
same,"viability, T/C","second compound 3.16 µM, first compound 0.316 µM",57.2%
same,"viability, T/C","second compound 3.16 µM, first compound 1 µM",46.9%
same,"viability, T/C","second compound 10 µM, first compound 0.00316 µM",83.6%
same,"viability, T/C","second compound 10 µM, first compound 0.01 µM",84.7%
same,"viability, T/C","second compound 10 µM, first compound 0.0316 µM",70.6%
same,"viability, T/C","second compound 10 µM, first compound 0.1 µM",59.8%
same,"viability, T/C","second compound 10 µM, first compound 0.316 µM",50%
same,"viability, T/C","second compound 10 µM, first compound 1 µM",46.3%
